These are literature values, as cited in article PMC5611894 (Journal of Alzheimer's Disease, 2017).

Molecules are shown by their SMILES.

A word on the Kd: it is the free concentration of one partner at which half of the binding sites on the other are occupied at equilibrium, for simple one-to-one binding.

The target in data set [1] is Aβ42 monomers. The following applies: SPR equilibrium binding, Aβ42 monomers immobilized on chip.
Data set [2] addresses Aβ42 oligomers. The settings on record: SPR equilibrium binding, Aβ42 oligomers immobilized on chip.

In the case of `CC[C@]12C=CCN3CC[C@]4(C(=C(C(=O)OC)C1)Nc1ccccc14)[C@@H]32` [tabersonine], the Kd in data set [1] is 69 µM; in data set [2], 535 µM.
